Results as given in US6677310B1, “Ring-expanded nucleosides and nucleotides” (Nabi, priority 1999, dated 2004).
Values after ≈ are worked out from the molar mass of the structure shown. “Also recorded” adds a separate entry of the source.

How the values were obtained:
P3HR-1 strain of EBV = experiment: Viral capsid antigen (VCA) / EBV immunofluorescence assay in Daudi cells; type: cell-based, Epstein-Barr virus; settings: for SI (Selectivity Index), Daudi Cells: IC50 (Daudi cells) divided by anti-EBV EC50; for SI (Selectivity Index), Neutral Red Uptake: IC50 (neutral red, stationary HFF) divided by anti-EBV EC50; for SI (Selectivity Index), HFF Cells: IC50 (rapidly growing HFF) divided by anti-EBV EC50; for EC50: human gammaherpesvirus 4, Daudi cells, read-out: Antiviral Activity (EC50), anti-EBV
Description: After virus adsorption, the cells were washed and pelleted, and the supernatant was discarded. The drugs to be tested were serially diluted in RPMI-1640 and added to the appropriate tubes. The cultures were incubated for 2 days in complete medium to allow viral gene expression. Following the 48 h incubation period, a number of cells of each sample were counted and washed in phosphate-buffered saline (PBS), and slides were prepared. The slides were dried overnight. The dried cells were fixed with acetone. A monoclonal antibody to viral capsid antigen (VCA) was then added to the cells, incubated for 30 min at 37° C., and washed in PBS. This was followed by a fluorescein-conjugated goat anti-mouse IgG antibody. The cells were counterstained with. Evans Blue. A total of 500 negative and fluorescence positive cells were counted. The total number of VCA positive cells in the cultures was calculated and EC50 values determined using Microsoft Excel Software.
(§1) Data Analysis: Dose-response relationships were constructed by linearly regressing the percent inhibition of parameters derived in the preceding sections against log drug concentrations. Fifty-percent inhibitory (IC50) concentrations were calculated from the regression lines.

[1] = Cell proliferation assay, rapidly growing Daudi cells; type: cell-based; settings: human; for IC50 at 72 h: rapidly growing Daudi cells, read-out: Cytotoxicity (IC50), Daudi Cells
Description: (§2) The toxicity of Compounds 14-1 and 14-2 was also measured in rapidly growing human foreskin fibroblast (HFF) cells and Daudi cells by cell proliferation assay (National Institute of Allergy and Infectious Diseases (NIAID), NIH, Bethesda, Md.). According to the assay method, the appropriate cells were seeded in six-well plates in MEM containing 10% FBS. Twenty four hours later, the cells were treated with several dilutions of the test compounds covering a range of 0.03-100 μg/ml. The plates were incubated in a CO2 incubator at 37° C. for 72h. The cells were washed after removing the media and subsequently released from the plate wells by the addition of 1 ml of 0.25% trypsin. The contents in the wells were mixed, diluted with Isotone III and counted using a Coulter counter. The CC50 values (concentration of compound giving 50% inhibition of cell proliferation) were calculated by linear regression analysis. Toxicity of Compound 14-1 was also evaluated in bone marrow precursor cells by previously published procedure (Sommadossi, J.-P., et al., Biochem. Pharmacol., 44:1921-1925, 1992).
(§3) (A) Cell Proliferation Assay: Twenty-four hours prior to assay, cells (HFF or Daudi) were seeded in six-well plates at a concentration of 2.5×10^4 cells per well in MEM containing 10% FBS. On the day of the assay, drugs were diluted serially in MEM containing 10% FBS at increments of 1:5 covering a range from […]. For drugs that had to be solubilized in DMSO, control wells receive MEM containing 10% DMSO. The media from the wells was then aspirated, and 2 mL of each drug concentration was added to each well. The cells were incubated in a CO2 incubator at 37° C. for 72 h. At the end of this time, the media-drug solution was removed, and the cells were washed. Trypsin-EDTA (0.25%, 1 mL) was added to each well and incubated until the cells started to come off the plate. The cell-media mixture was then pipeted up and down vigorously to break up the cell suspension and 0.2 mL of the mixture added to 9.8 mL of Isoton III and the cells were counted using a Coulter Counter. Each sample was counted three times with two replicate wells per sample. The IC50 values were calculated using a computer program.

[2] = Cell proliferation assay, rapidly growing HFF cells; type: cell-based; settings: human, rapidly growing human foreskin fibroblast (HFF) cells; for IC50 at 72 h: rapidly growing HFF cells, read-out: Cytotoxicity (IC50), HFF Cells
Description: as §2, §3

[3] = Neutral red uptake assay, stationary HFF cells; type: cell-based; settings: human, read-out: Cytotoxicity (IC50), Neutral Red Uptake
Description: (B) Neutral Red Uptake Assay: Twenty-four hours prior to assay, HFF cells were plated into 96-well plates at a concentration of 2.5×10^4 cells/well. After 24 h, the media was aspirated, and […] of media containing drug was added to the first row of wells and then diluted serially 1:5 using the automated Cetus Liquid Handling System. The plates were then incubated in a Co2 incubator at 37° C. for 7 days. At this time the media/drug was removed, cells were washed, 200 μL/well of 0.01% neutral red in PBS was added, and the mixture was incubated for 1 h. The dye was removed, and the cells were washed using a Nunc Plate Washer. After the wash was removed, […] of 50% ethanol/1% aqueous acetic acid was added. The plates were placed on a rotating shaker for 15 min, and the optical densities were then read at 540 nm using a plate reader.
as §1

[4] = target: T1, guanine deaminase (guanase) from rabbit liver (Oryctolagus cuniculus, UniProt G1T386); experiment: Guanine deaminase assay (Example 17); type: biochemical; settings: Lineweaver-Burk plots
T1 construct: from tissue; host or cells: rabbit liver
T1 sequence (G1T386 1-454): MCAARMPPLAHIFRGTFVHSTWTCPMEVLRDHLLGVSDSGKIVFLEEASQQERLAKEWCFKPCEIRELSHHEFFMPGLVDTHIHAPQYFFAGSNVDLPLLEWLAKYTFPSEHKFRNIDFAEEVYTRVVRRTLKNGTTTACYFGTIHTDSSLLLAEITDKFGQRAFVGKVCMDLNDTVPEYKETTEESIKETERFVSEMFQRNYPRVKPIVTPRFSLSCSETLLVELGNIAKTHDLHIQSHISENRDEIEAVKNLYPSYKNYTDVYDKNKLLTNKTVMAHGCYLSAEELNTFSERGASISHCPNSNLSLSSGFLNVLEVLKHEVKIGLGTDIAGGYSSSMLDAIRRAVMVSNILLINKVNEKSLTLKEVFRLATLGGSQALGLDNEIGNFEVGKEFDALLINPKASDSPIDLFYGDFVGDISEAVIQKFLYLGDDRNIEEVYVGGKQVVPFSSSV
Description: Stock solutions of the substrate, enzyme, and inhibitors were prepared using a 50 mM Tris-HCl buffer (pH 7.4). The enzyme kinetics was followed by measuring the change in optical density (decrease in absorbance) per minute of the substrate guanine. By keeping the concentration of the inhibitor constant, and by varying the substrate concentration, a set of kinetic data was obtained. Additional sets of data were generated using different concentrations of the inhibitor. The substrate concentration in each assay ranged 6-20 μM; a total of six different concentrations were employed. The inhibitor concentration used in each assay was 30 or 40 μM. The amount of enzyme used in each assay was 0.0076 unit. The Ki for inhibition assays was computed from Lineweaver-Burk plots. The Lineweaver-Burk plot (1/V vs 1/[S]), as well as the linear regression analysis of kinetic data, were performed using the program Quattro Pro (version 6.01) for Windows.™.

[5] = target: T2, adenosine deaminase from calf intestinal mucosa (Bos taurus, UniProt P56658); experiment: Adenosine deaminase assay (Example 17); type: biochemical; settings: Lineweaver-Burk plots; with and without preincubation
T2 construct: against adenosine deaminase from calf intestinal mucosa; from tissue; host or cells: calf intestinal mucosa
T2 sequence (P56658 whole entry): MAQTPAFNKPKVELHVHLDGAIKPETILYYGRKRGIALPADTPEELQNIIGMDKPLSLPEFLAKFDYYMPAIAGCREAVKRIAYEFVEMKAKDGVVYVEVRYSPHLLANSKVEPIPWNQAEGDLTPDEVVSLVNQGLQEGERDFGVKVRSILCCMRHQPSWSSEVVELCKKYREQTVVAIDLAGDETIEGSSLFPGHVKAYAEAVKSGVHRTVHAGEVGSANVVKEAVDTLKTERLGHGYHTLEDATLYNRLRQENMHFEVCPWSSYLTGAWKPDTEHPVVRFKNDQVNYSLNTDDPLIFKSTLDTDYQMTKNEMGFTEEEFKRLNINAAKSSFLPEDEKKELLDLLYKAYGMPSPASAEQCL
Description: Inhibition of adenosine deaminase (ADA) by Compound 17-1 and Compound 17-2 (see FIG. 13 for chemical structures; note that structure 1 FIG. 13 is the same as that in figure except that it is written in an anti-conformation in the former) was investigated in vitro against adenosine deaminase from calf intestinal mucosa in a 50 mM phosphate buffer (pH=7.4) at 25° C., by spectro-photometrically monitoring the rate of hydrolysis of substrate adenosine at 265 nm. Stock solutions of the substrate, enzyme, and inhibitors were prepared using a 50 mM phosphate buffer (pH 7.4). The enzyme kinetics was followed by measuring the change in optical density (decrease in absorbance) per minute of the substrate adenosine. By keeping the concentration of the inhibitor constant, and by varying the substrate concentration, a set of kinetic data was obtained. Additional sets of data were generated using different concentrations of the inhibitor. […]
(a) pre-incubation of the enzyme with the inhibitor; here the enzyme (ADA 10 μL) and inhibitor were preincubated for 10 min in a calculated amount of phosphate buffer (50 mM, pH 7.5 ) at 25° C. and the reaction was initiated by the addition of substrate, adenosine, and (b) without preincubation; here the reaction was started by addition of ADA (10 μL) to a mixture of adenosine and inhibitor in the phosphate buffer at 25° C. […]

Row | Structure (SMILES) | SI (Selectivity Index), Daudi Cells (P3HR-1 strain of EBV) | SI (Selectivity Index), Neutral Red Uptake (P3HR-1 strain of EBV) | SI (Selectivity Index), HFF Cells (P3HR-1 strain of EBV) | EC50 (P3HR-1 strain of EBV) | CC50 at 72 h ([1]; Rapidly growing Daudi cells) | IC50 at 72 h [1] | CC50 at 72 h ([2]; Rapidly growing HFF cells) | IC50 at 72 h [2] | IC50 at 7 days [3] | inhibition of guanine deaminase (guanase), mode [4] | mode of inhibition of adenosine deaminase [5] | melting point
1 | Nc1nc2c(ncn2COCCO)c(=O)[nH]1 [Aciclovir, reference compound] | >62 | >125 | >125 | 0.8 µg/mL (≈ 3.55 µM) | > 50 µg/mL | > 50 µg/mL | > 100 µg/mL | > 100 µg/mL | > 100 µg/mL | – | – | –
2 | N=c1nc(N)c2ncn(COCCO)c2c(N)n1 [Compound 17-2] | – | – | – | – | – | – | – | – | – | competitive inhibitor | competitive inhibitor; also recorded: reversible inhibitor | –
3 | O=C1c2ncn(Cc3ccccc3)c2N(Cc2ccccc2)C(=O)CN1Cc1ccccc1 [Compound 18-1, 3,4,7-Tribenzyl-4,5,7,8-tetrahydro-6H-imidazo[4,5-e][1,4]diazepine-5,8-dione] | >12 | >24 | >24 | 4.1 µg/mL (≈ 9.39 µM) | – | > 50 µg/mL | – | > 100 µg/mL | > 100 µg/mL | – | – | 170 to 172 °C
4 | O=C1NCC(=O)N(Cc2ccccc2)c2c1nc(Br)n2Cc1ccccc1 [Compound 18-2, 3,4-Dibenzyl-2-bromo-4,5,7,8-tetrahydro-6H-imidazo[4,5-e][1,4]diazepine-5,8-dione] | >6 | >12 | >12 | 8.3 µg/mL (≈ 19.5 µM) | – | > 50 µg/mL | – | > 100 µg/mL | > 100 µg/mL | – | – | 239 to 241 °C
